Reference: patent US20100016324A1, “PHARMACEUTICAL COMPOSITIONS FOR THE TREATMENT OF CELLULITE” (MENARINI RICERCHE S.P.A., priority 2004, published 2010)

Experiments:
[1] = test system: human adipocytes; assay: in vitro lipolysis test: glycerol release stimulated by 10 nM isoprenalin in cultured human adipocytes; type: cell-based; details: Adipocyte, 15 min preincubation, 4 h, read-out: % INCREASE IN LIPOLYSIS
Description: Determination of extracellular glycerol produced by lipolysis of adipocyte triglycerides.
The in vitro lipolysis test was conducted on human adipocytes obtained from primary cultures of their progenitors, preadipocytes (Promocell), by inducing differentiation. The actual adipocyte differentiation was established by assaying glycerol-3-phosphate dehydrogenase (an enzyme expressed in mature adipocytes, but not in preadipocytes) and the lipids accumulated at intracellular level, with Oil Red O (Sigma).
The PDE3 inhibitors were preincubated with the adipocytes at various concentrations for 15 min; 10 nM of isoprenalin, able to induce weak stimulation of lipolysis (25% of the maximum response obtained with isoprenalin 1 μM), was then added. After 4 h the culture medium was removed, and […].
Lipolytic activity was evaluated by determining the glycerol released into the extracellular medium following triglyceride hydrolysis.
Effect of Some PDE Inhibitors on Glycerol Release, Stimulated by 10 nM Isoprenalin, in Cultured Human Adipocytes

[2] = Determination of the compound in the blood at the end of the observation period; type: in vivo, human; details: after topical cream with 1% Milrinone twice a day for 2 months
Description: 10 healthy female adults presenting evident cellulite in the upper outer part of the thighs were examined.
Each patient served as her own control for evaluation of efficacy and safety. The cream containing the active constituent (1% Milrinone) was spread on the outer part of one thigh, while the base cream (without the active constituent) was spread in the same area of the other thigh, in a randomised manner.
Treatment with approx. 2-3 cm of cream, massaged in for 2-3 minutes until absorbed, was repeated twice a day every day for 2 months.

[3] = test system: cellulite in the upper outer part of the thighs; assay: In vivo test: thigh circumference in healthy female adults with cellulite, cream vs base cream; set-up: species or system human; details: cream with 1% Milrinone, topical, twice a day for 2 months, 10 healthy female adults
Description: 10 healthy female adults presenting evident cellulite in the upper outer part of the thighs were examined. Each patient served as her own control for evaluation of efficacy and safety. […] Treatment with approx. 2-3 cm of cream, massaged in for 2-3 minutes until absorbed, was repeated twice a day every day for 2 months. […] The circumference of each thigh was measured periodically, two-thirds of the way between the knee and the greater trochanter, until the end of treatment. The reduction in circumference of the pharmacologically treated thigh compared with the untreated thigh was 2.9±0.7 cm, with a range of 1.3-4.7 cm.

SMILES | activation at 10 µM [1] [%] | other results
Nc1cc(-c2ccncc2)c[nH]c1=O [Amrinone] | 20 ± 6 | 
O=C1CN2Cc3c(ccc(Cl)c3Cl)N=C2N1 [Anagrelide, anagrelide] | 114 ± 11 | 
Cn1c(=O)c2c(ncn2C)n(C)c1=O [Caffeine, caffeine] | 10 ± 5 | 
O=C1CCc2cc(OCCCCc3nnnn3C3CCCCC3)ccc2N1 [Cilostazol, cilostazol] | 31 ± 9 | 
CSc1ccc(C(=O)c2[nH]c(=O)[nH]c2C)cc1 [Enoximone, enoximone] | 65 ± 4 | 
Cc1[nH]c(=O)c(C#N)cc1-c1ccncc1 [Milrinone, milrinone] | 151 ± 16 | presence of the compound in the blood [2]: did not detect the presence of the compound; reduction in circumference of the pharmacologically treated thigh compared with the untreated thigh ([3]; mean ± spread): 2.9±0.7 cm; reduction in circumference of the pharmacologically treated thigh compared with the untreated thigh, range ([3]; range across patients): 1.3-4.7 cm
COc1ccc(-c2nc3ccc(C4=NNC(=O)CC4C)cc3[nH]2)cc1 (stereo not drawn) [Pimobendan, pimobendan] | 159 ± 22 | 
Cn1c(=O)c2[nH]cnc2n(C)c1=O [Theophylline, theophylline] | 5 ± 4 | 
COc1cc2c(cc1OC)-c1c/c(=N\c3c(C)cc(C)cc3C)n(C)c(=O)n1CC2 [Trequinsin, trequinsin] | 276 ± 59 | 
